One assay deals with T1, NS3/4A J4L6S strain (Hepatitis C virus genotype 1b, UniProt O92972, C1454S/C1711G).
T1 construct: DNA encoding the recombinant HCV NS3/4A protease complex (amino acid 1027 to 1711) for these strains; inferred from pET21b vector and Ni-NTA purification; made in house; host or cells: E. coli BL21 (DE3)
As to the kind of experiment: Recombinant HCV NS3/4A protease complex FRET peptide assay, J4L6S strain. The class given is biochemical, HCV genotype 1b. The text has this: The purpose of this in vitro assay was to measure the inhibition of HCV NS3 protease complexes, derived from the BMS, H77C or J416S strains, as described below, by compounds of the present invention. This assay provides an indication of how effective compounds of the present invention would be in inhibiting HCV […] proteolytic activity.
Serum from an HCV-infected patient was obtained from Dr. T. Wright, San Francisco Hospital. An engineered full-length cDNA template of the HCV genome (BMS strain) was constructed from DNA fragments obtained by reverse transcription-PCR (RT-PCR) of serum RNA and using primers selected on the basis of homology between other genotype 1a strains. From the determination of the entire genome sequence, a genotype 1a was assigned to the HCV isolate according to the classification of Simmonds et al. (See P Simmonds, K A Rose, S Graham, S W Chan, F McOmish, B C Dow, E A Follett, P L Yap and H Marsden, J. Clin. Microbiol., 31(6), 1493-1503 (1993)). […] The infectious clones, H77C (1a genotype) and J4L6S (1b genotype) were obtained from R. Purcell (NIH) and the sequences are published in genebank (AAB67036, see Yanagi, M., Purcell, R. H., Emerson, S. U. and Bukh, J. Proc. Natl. Acad. Sci. U.S.A. 94(16),8738-8743 (1997); AF054247, see Yanagi, M., St Claire, M., Shapiro, M., Emerson, S. U., Purcell, R. H. and Bukh, J, Virology 244 (1), 161-172. (1998)). […]

Another assay concerns the target T2, human leukocyte elastase (Homo sapiens, UniProt P08246).
T2 sequence (P08246 30-267): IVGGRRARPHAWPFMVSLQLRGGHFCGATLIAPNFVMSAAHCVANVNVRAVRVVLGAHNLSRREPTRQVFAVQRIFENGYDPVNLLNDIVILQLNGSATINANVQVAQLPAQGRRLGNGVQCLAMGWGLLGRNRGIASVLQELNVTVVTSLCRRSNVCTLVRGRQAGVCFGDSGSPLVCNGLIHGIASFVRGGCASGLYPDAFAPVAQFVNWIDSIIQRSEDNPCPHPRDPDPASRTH
The assay can be described thus: Specificity assay, human leukocyte elastase. The assay is classed as biochemical. As to conditions: read-out: HLE. The method, then: The specificities of compounds of the present invention were determined against a variety of serine proteases: human leukocyte elastase, porcine pancreatic elastase and bovine pancreatic α-chymotrypsin and one cysteine protease: human liver cathepsin B. In all cases a 96-well plate format protocol using calorimetric […] (pNA) substrate specific for each enzyme was used as described previously (Patent WO 00/09543) with some modifications.
Each assay included a 1 h enzyme-inhibitor pre-incubation at RT followed by addition of substrate and hydrolysis to ˜30% conversion as measured on a Spectramax Pro microplate reader. Compound concentrations varied from 100 to 0.4 μM depending on their potency.
The final conditions and protocol for each assay was as reported previously (Patent WO 00/09543) with the inclusion of an additional assay: • 50 mM Tris-HCl pH 8, 0.5M Na2SO4, 50 mM NaCl, 0.1 mM EDTA, 3% DMSO, 0.01% Tween-20 with 133 μM succ-AAA-PNA and 20 nM Elastase
The percentage of inhibition was calculated using the formula: [1−((UVinh−UVblank)/(UVctl−UVblank))]×100

Experimental findings from patent US6872805B2 (Bristol-Myers Squibb Company, priority 2000, dated 2005) are described below.

Molecules are shown by their SMILES.

T1 sequence (O92972 1027-1711 C1454S/C1711G): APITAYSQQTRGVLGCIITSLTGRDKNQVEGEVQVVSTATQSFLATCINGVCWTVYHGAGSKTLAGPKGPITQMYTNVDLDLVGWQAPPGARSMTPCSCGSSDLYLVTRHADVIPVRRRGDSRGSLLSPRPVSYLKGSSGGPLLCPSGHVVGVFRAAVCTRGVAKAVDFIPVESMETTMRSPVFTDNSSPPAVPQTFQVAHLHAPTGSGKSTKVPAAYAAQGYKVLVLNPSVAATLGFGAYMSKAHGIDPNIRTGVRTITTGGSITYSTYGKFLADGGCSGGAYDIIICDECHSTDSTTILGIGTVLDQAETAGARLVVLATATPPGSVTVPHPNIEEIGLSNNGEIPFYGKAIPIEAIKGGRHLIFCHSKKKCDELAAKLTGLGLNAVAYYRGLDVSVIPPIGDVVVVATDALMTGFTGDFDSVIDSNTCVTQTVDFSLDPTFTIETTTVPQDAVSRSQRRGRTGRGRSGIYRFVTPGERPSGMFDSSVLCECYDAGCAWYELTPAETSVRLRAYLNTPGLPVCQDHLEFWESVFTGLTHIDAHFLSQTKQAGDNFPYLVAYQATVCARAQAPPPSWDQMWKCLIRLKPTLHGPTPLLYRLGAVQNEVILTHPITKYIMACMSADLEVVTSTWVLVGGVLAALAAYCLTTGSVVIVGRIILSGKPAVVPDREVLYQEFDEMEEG

`C=CC1C[C@]1(NC(=O)[C@@H]1C[C@@H](Oc2cc(-c3ccccc3)nc3cc(OC)ccc23)CN1C(=O)C(NC(=O)OC(C)(C)C)C(C)(C)C)C(=O)NS(=O)(=O)c1ccc(NC(C)=O)cc1` (some centres unmarked) [Compound 58]: the figures for the IC50 on NS3/4A J4L6S strain and on human leukocyte elastase were 0.008 µM and 35 µM, respectively.
